Tests used:
[1] = test system: HeLa (cervical adenocarcinoma) cells; test: MTT antiproliferative assay, HeLa; type: cell-based; conditions: Homo sapiens, 72 h, mean ± SD of three independent experiments
Protocol: (§1) The growth inhibition activity was assessed according to the slightly modified procedure performed at the National Cancer Institute, Developmental Therapeutics Program.
(§2) Examined compounds were dissolved in DMSO (1 × 10^−2 M). The experiments were carried out on seven human tumor cell lines and two normal cell lines. The following cell lines were used: HeLa (human cervical adenocarcinoma; purchased from ATCC), CaCo-2 (human colorectal adenocarcinoma), HuT78 (T-cell lymphoma), THP-1 (acute monocytic leukemia), SW620 (colorectal adenocarcinoma, metastatic), MDA-MB-231 (human breast adenocarcinoma), HL60 (promyelocytic leukemia cell line), foreskin fibroblast cells (BJ) and MDCK1 (Madine–Darby canine kidney fibroblast like cells). MDCK1 cells were used between 24 and 26 passages.
(§3) Adherent cells were cultured in the Dulbecco’s modified Eagle medium—DMEM (Gibco, EU) supplemented with 10 % heat-inactivated fetal bovine serum (FBS, Gibco, EU), 2 mM glutamine, and 100 U/0.1 mg penicillin/streptomycin. Cells on suspension were cultured in RPMI 1640 (Gibco, EU) medium supplemented with 10 % FBS (Gibco, EU), 2 mM glutamine, 1 mM sodium pyruvate, 10 mM HEPES. Cells were grown in humidified atmosphere under the conditions of 37 °C/5% of CO2 gas in the CO2 incubator (IGO 150 CELLlife^TM, JOUAN, Thermo Fisher Scientific, Waltham, MA, USA). A erythrosin B (Sigma-Aldrich, St. Louis, MO, USA) dye exclusion method was used to assess cell viability before plating.
(§4) Adherent cells (HeLa, CaCo-2, MCF-7 and MDCK-1) were plated in 96-well flat bottom plates (Greiner, Frickenhausen, Austria) at a concentration of 2 × 10^4 cells/mL. Suspension cells (THP-1 and HuT78) were plated in 96-well microtiter plates (Sarstead, Newton, USA) at a concentration of 1 × 10^5 cells/mL. Twenty-four hours later, cells were treated with test agents in […] 10-fold dilutions ([…] to 10^−4 M) and incubated for further 72 h. Working dilutions were freshly prepared on the day of testing. The solvent was also tested for eventual inhibitory activity by adjusting its concentration to be the same as in working concentrations. After 72 h of incubation, the cell growth rate was evaluated by performing the MTT assay, which detects dehydrogenase activity in viable cells. For this purpose, upon completion of the incubation period, growth medium was discarded and 50 μL of MTT was added to each well at a concentration of 5 mg/mL. After four hours of incubation at 37 °C, water insoluble MTT-formazan crystals were dissolved in 150 μL of dimethyl-sulfoxide (DMSO) for adherent cells, and in 10 % SDS with 0.01 M/L HCl for cells grown in suspension. The absorbance (OD, optical density) was measured on a microplate reader (iMark, BIO RAD, Hercules, CA, USA) at 595 nm.
(§5) Percent of life cells was calculated as follows: % = OD (sample)–OD (background)/OD (control)–OD (background) × 100.
(§6) Optical density (OD) of background for adherent cells is the OD of MTT solution and DMSO; OD (background) for suspension cells is OD of the culture medium with MTT and 10% SDS with 0.01 M/L HCl; OD (control) is the OD of the cells growth without tested compounds.
(§7) Calculation of GI50 value curves and QC analysis is performed by using the Excel tools and GraphPadPrism software (La Jolla, CA), v. 5.03. Briefly, individual concentration effect curves are generated by plotting the logarithm of the concentration of tested compounds(X) vs. corresponding percent inhibition values (Y) using least squares fit. The best fit GI50 values are calculated using Log (inhibitor) versus normalized response—Variable slope equation, where Y Ľ 100/(1 ţ 10 ((LogIC50 _ X) * HillSlope)). QC criteria parameters (Z0, S:B, R2, HillSlope) were checked for every GI50 curve.

[2] = test system: CaCo-2 (colon adenocarcinoma) cells; test: MTT antiproliferative assay, CaCo-2; type: cell-based, human; conditions: Homo sapiens, Caco-2; 72 h, MTT, mean ± SD of three independent experiments
Protocol: as §1, §2, §3, §4, §5, §6
as §7, with “The best fit GI50 values are calculated using Log (inhibitor) versus normalized response—Variable slope equation, where Y Ľ 100/(1 ţ 10 ((LogIC50 _ X) * HillSlope)).” left out

[3] = test system: HuT78 (T-cell lymphoma) cells; test: MTT antiproliferative assay, HuT78; type: cell-based, human; conditions: for IC50: Homo sapiens, HuT78, 72 h, 72 h, MTT, mean ± SD of three independent experiments; for SI (BJ) HuT78: SI = IC50 BJ / IC50 HuT78; for SI (MDCK) HuT78: SI = IC50 MDCK1 / IC50 HuT78
Protocol: as §1, §2, §3, §4, §5, §6, §7

human fibroblasts (BJ) = test: MTT antiproliferative assay, normal BJ fibroblasts; type: cell-based; conditions: Homo sapiens, Fibroblast, 72 h, MTT, mean ± SD of three independent experiments; normal cells
Protocol: as §1, §2, §3, §4, §5, §6, §7

[4] = test system: MDCK1 (Madin–Darby canine kidney) cells; test: MTT antiproliferative assay, non-tumor MDCK1 cells; type: cell-based; conditions: Canis lupus familiaris, MDCK1, 72 h, mean ± SD of three independent experiments, normal cells
Protocol: as §1, §2, §3, §4, §5, §6, §7

| Structure (SMILES) | IC50 [1] [µM] | melting point [°C] | IC50 [2] [µM] | IC50 [3] [µM] | SI (BJ) HuT78 [3] | SI (MDCK) HuT78 [3] | IC50 (human fibroblasts (BJ)) [µM] | IC50 [4] [µM] |
| --- | --- | --- | --- | --- | --- | --- | --- | --- |
| Clc1ccc2nc(-c3ccc(OCc4c[nH]nn4)cc3)sc2c1 [21a, 6-Chloro-2-(4-((1H-1,2,3-triazol-4-yl)methoxy)phenyl)benzothiazole] | > 100 | 220 to 223 | > 100 | 6.8 ± 6.2 | 14.7 | 1.85 | > 100 | 12.6 ± 4.8 |
| COc1cc(-c2nc3ccc(C4=NCCN4)cc3s2)ccc1OCc1cn(Cc2ccccc2)nn1.Cl [37c, 2-(3-Methoxy-4-((1-benzyl-1H-1,2,3-triazol-4-yl)methoxy)phenyl)-6-(4,5-dihydro-1H-imidazol-2-yl)benzothiazole hydrochloride] | 3.4 ± 0.2 | > 240 | 4.5 ± 2.7 | 3 ± 1 | 1.6 | – | 4.8 ± 3.5 | 2.6 ± 0.1 |
| Cl.Fc1cc(-c2nc3ccc(C4=NCCN4)cc3s2)ccc1OCc1c[nH]nn1 [36b, 2-(3-Fluoro-4-((1H-1,2,3-triazol-4-yl)methoxy)phenyl)-6-(4,5-dihydro-1H-imidazol-2-yl)benzothiazole hydrochloride] | 30 ± 1 | 234 to 237 | 38.3 ± 1.2 | 1.8 ± 0.4 | – | 14 | 32.6 ± 3.4 | 25.2 ± 1.3 |
| COc1cc(-c2nc3ccc(Cl)cc3s2)ccc1OCC(=O)c1ccccc1 [15c, 6-Chloro-2-(3-methoxy-4-(2-oxo-2-phenylethoxy)phenyl)benzothiazole] | > 100 | 163 to 166 | > 100 | > 100 | – | – | > 100 | 79.3 ± 14.4 |
| O=C(COc1ccc(-c2nc3ccccc3s2)cc1)c1ccccc1 [17a, 2-(4-(2-Oxo-2-phenylethoxy)phenyl)benzothiazole] | > 100 | 150 to 155 | > 100 | > 100 | – | – | > 100 | > 100 |
| COc1cc(-c2nc3ccc(F)cc3s2)ccc1OCC(=O)c1ccccc1 [16c, 6-Fluoro-2-(3-methoxy-4-(2-oxo-2-phenylethoxy)phenyl)benzothiazole] | > 100 | 178 to 181 | > 100 | > 100 | – | – | > 100 | 6.8 ± 6.2 |
| O=C(COc1ccc(-c2nc3ccc(F)cc3s2)cc1)c1ccccc1 [16a, 6-Fluoro-2-(4-(2-oxo-2-phenylethoxy)phenyl)benzothiazole] | > 100 | 164 to 167 | > 100 | > 100 | – | – | > 100 | 87.3 ± 6.9 |
| O=C(COc1ccc(-c2nc3ccc(Cl)cc3s2)cc1F)c1ccccc1 [15b, 6-Chloro-2-(3-fluoro-4-(2-oxo-2-phenylethoxy)phenyl)benzothiazole] | > 100 | 192 to 195 | > 100 | > 100 | – | – | > 100 | > 100 |
| COc1cc(-c2nc3ccccc3s2)ccc1OCc1cn(Cc2ccccc2)nn1 [26c, 2-(3-Methoxy-4-((1-benzyl-1H-1,2,3-triazol-4-yl)methoxy)phenyl)benzothiazole] | 23.3 ± 15.3 | 170 to 173 | > 100 | 23.7 ± 5.2 | 3.24 | – | 76.7 ± 27.7 | 8.5 ± 6.4 |
| Fc1cc(-c2nc3ccc(Cl)cc3s2)ccc1OCc1c[nH]nn1 [21b, 6-Chloro-2-(3-fluoro-4-((1H-1,2,3-triazol-4-yl)methoxy)phenyl)benzothiazole] | > 100 | 205 to 209 | > 100 | 3.6 ± 3.1 | 23.36 | 2.8 | 84.1 ± 24.7 | 10.1 ± 4.5 |
| COc1cc(-c2nc3ccc(C4=NCCN4)cc3s2)ccc1OCC(=O)c1ccccc1.Cl [34c, 2-(3-Methoxy-4-(2-oxo-2-phenylethoxy)phenyl)-6-(4,5-dihydro-1H-imidazol-2-yl)benzothiazole hydrochloride] | 3.1 ± 0.2 | > 240 | 6.3 ± 3 | 1.8 ± 0.7 | – | – | 4 ± 0.1 | 2.1 ± 0.3 |
| Fc1cc(-c2nc3ccccc3s2)ccc1OCc1c[nH]nn1 [23b, 2-(3-Fluoro-4-((1H-1,2,3-triazol-4-yl)methoxy)phenyl)benzothiazole] | 34.9 ± 14.8 | 185 to 189 | 56 ± 14.6 | 17.1 ± 7.7 | 2.34 | 1.6 | 40.5 ± 17.2 | 27.4 ± 4.2 |
| Fc1ccc2nc(-c3ccc(OCc4c[nH]nn4)c(F)c3)sc2c1 [22b, 6-Fluoro-2-(3-fluoro-4-((1H-1,2,3-triazol-4-yl)methoxy)phenyl)benzothiazole] | 50.6 ± 19.3 | 177 to 180 | > 100 | 9.1 ± 2.8 | 9.49 | – | 86.4 ± 20.9 | 1 |
| COc1cc(-c2nc3ccc(Cl)cc3s2)ccc1OCc1ccccn1 [18c] | 67.3 ± 7.8 | 173 to 176 | > 100 | 55.6 ± 34.6 | – | – | > 100 | 41.4 ± 8.1 |
| O=C(COc1ccc(-c2nc3ccc(F)cc3s2)cc1F)c1ccccc1 [16b, 6-Fluoro-2-(3-fluoro-4-(2-oxo-2-phenylethoxy)phenyl)benzothiazole] | > 100 | 148 to 152 | 89.3 ± 15.8 | 69.8 ± 15.5 | 1.43 | – | > 100 | 25.8 ± 9.4 |
| Cl.O=C(COc1ccc(-c2nc3ccc(C4=NCCN4)cc3s2)cc1)c1ccccc1 [34a, 2-(4-(2-Oxo-2-phenylethoxy)phenyl)-6-(4,5-dihydro-1H-imidazol-2-yl)benzothiazole hydrochloride] | 3.4 ± 0.2 | > 250 | 4 ± 0.2 | 2.2 ± 0.3 | – | – | 3.9 ± 0.3 | 2.8 ± 0.3 |
| O=C(COc1ccc(-c2nc3ccccc3s2)cc1F)c1ccccc1 [17b, 2-(3-Fluoro-4-(2-oxo-2-phenylethoxy)phenyl)benzothiazole] | > 100 | 174 to 177 | > 100 | > 100 | – | – | > 100 | > 100 |
| Cl.Fc1cc(-c2nc3ccc(C4=NCCN4)cc3s2)ccc1OCc1cn(Cc2ccccc2)nn1 [37b, 2-(3-Fluoro-4-((1-benzyl-1H-1,2,3-triazol-4-yl)methoxy)phenyl)-6-(4,5-dihydro-1H-imidazol-2-yl)benzothiazole hydrochloride] | 4 ± 0.4 | > 240 | 6.1 ± 2.7 | 2.1 ± 0.2 | 2.52 | – | 5.3 ± 2.9 | 2.4 ± 0.3 |

From publication PMC9785280, “Synthesis, Antiproliferative Evaluation and QSAR Analysis of Novel Halogen- and Amidino-Substituted Benzothiazoles and Benzimidazoles” (International Journal of Molecular Sciences, 2022)
